Among the data in patent publication US8299056B2 (Signal Pharmaceuticals, LLC, priority 2008, dated 2012) are IC50 values, retold here.

The first test concerns the target T1, Syk (Homo sapiens, UniProt P43405).
T1 construct: purchased Carna Biosciences
Briefly: Syk HTRF assay. The test is classed as biochemical. The note with it: IC50 activity level, read-out: Activity Level. A digest of the protocol: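 HTRF kinase assay in HEPES pH 7.6 buffer with MgCl2, DTT and Triton X100; start mix of 87.5 μM ATP and 80 nM biotinylated peptide, 1 h at room temperature. EDTA stop, then Eu-anti-phosphotyrosine/streptavidin-DyLight 647 detection, read as 665/615 nm emission ratio.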
On the technique in general: Time-resolved FRET reads energy transfer from a long-lived donor to a nearby acceptor.
Consider `N[C@H]1CC[C@@H](Oc2cccc3nc(Nc4ccc(C(F)(F)F)cc4)nn23)CC1` [Example 423, cis-5-(4-aminocyclohexyloxy)-N-(4-(trifluoromethyl)phenyl)-[1,2,4]triazolo[1,5-a]pyridin-2-amine], for which the IC50 was 500 to 1000 nM.
Same read-out and setting: with `O=C1NCc2cc(-c3cccc4nc(Nc5ccccc5)nn34)ccc21` [Example 496, 5-(2-(phenylamino)-[1,2,4]triazolo[1,5-a]pyridin-5-yl)isoindolin-1-one] the figure was 250 to 500 nM.
As to `Cc1noc2cc(Nc3nc4cccc(NC5CCOCC5)n4n3)ccc12` [Example 531, N^2-(3-methylbenzo[d]isoxazol-6-yl)-N^5-(tetrahydro-2H-pyran-4-yl)-[1,2,4]triazolo[1,5-a]pyridine-2,5-diamine], the IC50 lay in the range of 1000 to 10000 nM.
As to `Cc1n[nH]c2ncc(Nc3nc4cccc(N[C@H]5CC[C@@H](O)CC5)n4n3)cc12` [Example 541, cis-4-(2-(3-methyl-1H-pyrazolo[3,4-b]pyridin-5-ylamino)-[1,2,4]triazolo[1,5-a]pyridin-5-ylamino)cyclohexanol], the IC50 is 0.005 to 250 nM.
Regarding `c1ccc(Nc2nc3cccc(NC4CCOCC4)n3n2)cc1` [Example 438, N^2-phenyl-N^5-(tetrahydro-2H-pyran-4-yl)-[1,2,4]triazolo[1,5-a]pyridine-2,5-diamine], the IC50 lay in the range of 1000 to 10000 nM.
For the compound `NCCN1Cc2ccc(-c3cccc4nc(Nc5ccccc5)nn34)cc2C1=O` [Example 495, 2-(2-aminoethyl)-6-(2-(phenylamino)-[1,2,4]triazolo[1,5-a]pyridin-5-yl)isoindolin-1-one], the IC50 is 1000 to 10000 nM.
On the same count and under the same terms, for `NCCOc1cc(-c2cccc3nc(Nc4ccccc4)nn23)ccn1` [Example 444, 5-(2-(2-aminoethoxy)pyridin-4-yl)-N-phenyl-[1,2,4]triazolo[1,5-a]pyridin-2-amine] the value was 250 to 500 nM.
Regarding `OC1CC[C@H](Nc2cccc3nc(Nc4ccc(C(F)(F)F)cc4)nn23)C1` (stereo in doubt) [Example 419, (1S,3S)-3-(2-(4-(trifluoromethyl)phenylamino)-[1,2,4]triazolo[1,5-a]pyridin-5-ylamino)cyclopentanol], the IC50 is 250 to 500 nM.
With `Cc1noc2cc(Nc3nc4cccc(N[C@H]5CC[C@@H](O)CC5)n4n3)ccc12` [Example 543, cis-4-(2-(3-methylbenzo[d]isoxazol-6-ylamino)-[1,2,4]triazolo[1,5-a]pyridin-5-ylamino)cyclohexanol], the IC50 fell in the range of 0.005 to 250 nM.

Staying with this test, now noted: activity levels A-D, read-out: Activity Level (IC50 in the Syk HTRF assay).
As for `Cc1n[nH]c2cc(Nc3nc4cccc(C[C@H]5CC[C@@H](O)CC5)n4n3)ccc12` [Example 239, cis-4-((2-(3-methyl-1H-indazol-6-ylamino)-[1,2,4]triazolo[1,5-a]pyridin-5-yl)methyl)cyclohexanol], the IC50 lay in the range of 0.005 to 250 nM.
For `FC(F)(F)c1ccc(Nc2nc3cccc(OC[C@H]4CCCN4)n3n2)cc1` [Example 302, (R)-5-(pyrrolidin-2-ylmethoxy)-N-(4-(trifluoromethyl)phenyl)-[1,2,4]triazolo[1,5-a]pyridin-2-amine], the IC50 fell in the range of 1000 to 10000 nM.
With `Oc1ccc(Nc2nc3cccc(N[C@H]4CC[C@@H](O)CC4)n3n2)cn1` [Example 371, cis-5-(5-(4-hydroxycyclohexylamino)-[1,2,4]triazolo[1,5-a]pyridin-2-ylamino)pyridin-2-ol], the IC50 fell in the range of 1000 to 10000 nM.
For `COc1cc(Nc2nc3cccc(N[C@H]4CC[C@@H](O)CC4)n3n2)ccn1` [Example 378, cis-4-(2-(2-methoxypyridin-4-ylamino)-[1,2,4]triazolo[1,5-a]pyridin-5-ylamino)cyclohexanol], the IC50 lay in the range of 0.005 to 250 nM.
Consider `Cc1cc(Nc2nc3cccc(N[C@H]4CC[C@@H](O)CC4)n3n2)cc(C)c1F` [Example 279, cis-4-(2-(4-fluoro-3,5-dimethylphenylamino)-[1,2,4]triazolo[1,5-a]pyridin-5-ylamino)cyclohexanol], for which the IC50 lay within 0.005 to 250 nM.
Regarding `OC1CCC[C@@H]1Nc1cccc2nc(Nc3ccc(C(F)(F)F)cc3)nn12` (stereo in doubt) [Example 374, (1S,2S)-2-(2-(4-(trifluoromethyl)phenylamino)-[1,2,4]triazolo[1,5-a]pyridin-5-ylamino)cyclopentanol], the IC50 fell in the range of 0.005 to 250 nM.
Consider `O=C1CCN(Cc2cccc3nc(Nc4ccc(C(F)(F)F)cc4)nn23)CCN1` [Example 269, 1-((2-(4-(trifluoromethyl)phenylamino)-[1,2,4]triazolo[1,5-a]pyridin-5-yl)methyl)-1,4-diazepan-5-one], for which the IC50 was in the range of 500 to 1000 nM.
Take `Cc1cc(Nc2nc3cccc(N[C@H]4CC[C@@H](O)CC4)n3n2)cc(C)n1` [Example 261, cis-4-(2-(2,6-dimethylpyridin-4-ylamino)-[1,2,4]triazolo[1,5-a]pyridin-5-ylamino)cyclohexanol]: the IC50 lay within 500 to 1000 nM.
Regarding `NC(=O)C1CCCN(Cc2cccc3nc(Nc4ccc(C(F)(F)F)cc4)nn23)C1` (stereo not drawn) [Example 257, 1-((2-(4-(trifluoromethyl)phenylamino)-[1,2,4]triazolo[1,5-a]pyridin-5-yl)methyl)piperidine-3-carboxamide], the IC50 was in the range of 1000 to 10000 nM.
As to `N#Cc1ccc(Nc2nc3cccc(N[C@H]4CC[C@@H](O)CC4)n3n2)cc1` [Example 363, 4-(5-(cis-4-hydroxycyclohexylamino)-[1,2,4]triazolo[1,5-a]pyridin-2-ylamino)benzonitrile], the IC50 is 0.005 to 250 nM.

Still in this test, the particulars now being: read-out: Activity Level (Syk HTRF assay IC50).
Take `Cn1ncc2ccc(Nc3nc4cccc(CC5CCOCC5)n4n3)cc21` [Example 160, N-(1-methyl-1H-indazol-6-yl)-5-((tetrahydro-2H-pyran-4-yl)methyl)-[1,2,4]triazolo[1,5-a]pyridin-2-amine]: the IC50 is 0.005 to 250 nM.
The same measure, in the same setting: with `CN1C(=O)C(C)(C)c2ccc(Nc3nc4cccc(NC5CCOC5)n4n3)cc21` (stereo in doubt) [compound 123, (R)-1,3,3-trimethyl-6-(5-(tetrahydrofuran-3-ylamino)-[1,2,4]triazolo[1,5-a]pyridin-2-ylamino)indolin-2-one] the figure was 0.005 to 250 nM; with `FC(F)(F)c1n[nH]c2cc(Nc3nc4cccc(NC5CCOCC5)n4n3)ccc12` [compound 129], 250 to 500 nM; with `Cn1ncc2ccc(Nc3nc4cccc(-c5ccccc5)n4n3)cc21` [compound 54, N-(1-methyl-1H-indazol-6-yl)-5-phenyl-[1,2,4]triazolo[1,5-a]pyridin-2-amine], 0.005 to 250 nM.
Take `c1ccc(-c2cccc3nc(Nc4ccc(-c5ncn[nH]5)cc4)nn23)cc1` [compound 56, N-(4-(1H-1,2,4-triazol-5-yl)phenyl)-5-phenyl-[1,2,4]triazolo[1,5-a]pyridin-2-amine]: the IC50 lay in the range of 0.005 to 250 nM.
Take `Oc1cccc(-c2cccc3nc(Nc4ccc5cnoc5c4)nn23)c1` [compound 14, 3-(2-(benzo[d]isoxazol-6-ylamino)-[1,2,4]triazolo[1,5-a]pyridin-5-yl)phenol]: the IC50 lay in the range of 0.005 to 250 nM.
For the compound `c1ccc(-c2cccc3nc(Nc4cncnc4)nn23)cc1` [compound 74, 5-phenyl-N-(pyrimidin-5-yl)-[1,2,4]triazolo[1,5-a]pyridin-2-amine], the IC50 lay within 1000 to 10000 nM.
For `CNC(=O)c1ccc(Nc2nc3cccc(-c4cccc(CCCN)c4)n3n2)cc1` [compound 8, 4-(5-(3-(3-aminopropyl)phenyl)-[1,2,4]triazolo[1,5-a]pyridin-2-ylamino)-N-methylbenzamide], the IC50 lay within 0.005 to 250 nM.
